Source: patent US12448394B2, “Heterocyclic pyrazole derivatives as type III receptor tyrosine kinase inhibitors” (DEVELOPMENT CENTER FOR BIOTECHNOLOGY, priority 2019, dated 2025)

Legend:
[1] = target: T1, FLT3-D835Y mutant kinase (Homo sapiens, UniProt P36888, D835Y); assay: FLT3-D835Y mutant kinase assay (AlphaScreen); assay type: biochemical; details: read-out: Ranking of IC50 values, FLT3-D835Y
T1 construct: purchased SignalChem
T1 sequence (P36888 27-993 D835Y): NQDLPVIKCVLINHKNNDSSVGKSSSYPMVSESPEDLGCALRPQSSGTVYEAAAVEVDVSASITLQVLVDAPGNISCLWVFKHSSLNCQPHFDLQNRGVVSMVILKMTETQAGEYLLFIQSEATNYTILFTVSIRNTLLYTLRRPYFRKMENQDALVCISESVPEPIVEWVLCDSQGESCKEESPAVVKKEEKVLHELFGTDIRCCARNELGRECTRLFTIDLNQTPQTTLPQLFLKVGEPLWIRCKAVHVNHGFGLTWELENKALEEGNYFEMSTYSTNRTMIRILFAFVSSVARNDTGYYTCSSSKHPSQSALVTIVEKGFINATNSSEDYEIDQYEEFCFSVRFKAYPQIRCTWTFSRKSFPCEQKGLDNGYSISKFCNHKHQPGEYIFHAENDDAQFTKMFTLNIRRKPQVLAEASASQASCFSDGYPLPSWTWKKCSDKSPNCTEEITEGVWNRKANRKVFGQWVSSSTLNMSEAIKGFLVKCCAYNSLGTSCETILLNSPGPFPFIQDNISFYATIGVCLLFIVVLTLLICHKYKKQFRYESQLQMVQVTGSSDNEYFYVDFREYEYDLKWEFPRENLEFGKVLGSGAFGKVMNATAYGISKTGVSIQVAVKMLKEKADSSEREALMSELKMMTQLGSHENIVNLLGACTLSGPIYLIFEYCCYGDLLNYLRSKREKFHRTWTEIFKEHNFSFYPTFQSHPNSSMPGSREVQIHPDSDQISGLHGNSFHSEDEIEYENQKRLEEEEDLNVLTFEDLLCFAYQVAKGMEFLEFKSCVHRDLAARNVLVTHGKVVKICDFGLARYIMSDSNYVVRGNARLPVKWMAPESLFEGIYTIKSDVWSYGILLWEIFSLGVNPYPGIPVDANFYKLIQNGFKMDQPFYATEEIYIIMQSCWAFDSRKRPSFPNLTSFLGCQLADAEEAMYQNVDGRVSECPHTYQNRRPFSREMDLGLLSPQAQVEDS
Outline: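 AlphaScreen readout of biotin-poly(Glu4:Tyr1) phosphorylation by 1 ng recombinant FLT3-D835Y. Conditions were 10 μM ATP, 10 mM MgCl2, MOPS pH 7.0, 30 min at 30 °C, EDTA stop. Compounds were serially diluted in duplicate to derive IC50.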

[2] = tested on: MV4-11 human acute myeloid leukemia cell with FLT3-ITD mutation; assay: MV4-11 cell proliferation assay (CellTiter 96); assay type: cell-based; details: Homo sapiens, MV4-11, 72 h, MV4-11 cells, 72 hours treatment, CellTiter96; read-out: anti-proliferation activity MV4-11 (FLT3-ITD), IC50 ranking
Outline: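 Cells seeded at 6500/well in IMDM with 10% heat-inactivated FBS, left overnight at 37 °C, 5% CO2, then exposed to increasing compound concentrations for 72 h. Viability read as absorbance at 490 nm after 2–4 h with CellTiter96 AQueous One reagent.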

[3] = tested on: Molm-14 human acute myeloid leukemia cell with FLT3-ITD mutation; assay: Molm-14 cell proliferation assay (CellTiter 96); assay type: cell-based; details: Homo sapiens; Molm-14 cells, 72 hours treatment, CellTiter96; read-out: anti-proliferation activity Molm-14 (FLT3-ITD), IC50 ranking
Outline: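 Molm-14 (FLT3-ITD AML) cells in RPMI 1640 with 10% heat-inactivated FBS were seeded at 25000 cells/well, incubated overnight at 37° C, 5% CO2, then treated with increasing compound concentrations for 72 hours. Viability was read as absorbance at 490 nm after 2˜4 hours with CellTiter96 AQueous One reagent.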

Structure (SMILES): Cn1ncc2ccc(-c3n[nH]c4c3Cc3sc(C5CCNCC5)cc3-4)cc21 [Compound 96, 3-(1-methyl-1H-indazol-6-yl)-6-(piperidin-4-yl)-1,4-dihydrothieno [2′,3′:4,5]cyclopenta [1,2-c]pyrazole]
- IC50 [1]: < 1 nM
- IC50 [2]: < 30 nM
- IC50 [3]: < 30 nM

Structure (SMILES): Cn1ncc2ccc(-c3n[nH]c4c3Cc3sc(-c5ccc(CN6CCCOCC6)cc5)cc3-4)cc21 [Compound 97, 4-(4-(3-(1-methyl-1H-indazol-6-yl)-1,4-dihydro-thieno[2′,3′:4,5]cyclopenta [1,2-c]pyrazol-6-yl)benzyl)-1,4-oxazepane]
- IC50 [1]: < 1 nM
- IC50 [2]: < 30 nM
- IC50 [3]: < 30 nM

Structure (SMILES): Cn1ncc2ccc(-c3n[nH]c4c3Cc3sc(C5CCN(C(=O)CN6CCOCC6)CC5)cc3-4)cc21 [Compound 98, 1-(4-(3-(1-methyl-1H-indazol-6-yl)-1,4-dihydro-thieno[2′,3′:4,5]cyclopenta [1,2-c]pyrazol-6-yl)piperidin-1-yl)-2-morpholinoethan-1-one]
- IC50 [1]: < 1 nM
- IC50 [2]: < 30 nM
- IC50 [3]: < 30 nM

Structure (SMILES): Cn1ncc2ccc(-c3n[nH]c4c3Cc3sc(-c5ccc(CN6CCCC6)cc5)cc3-4)cc21 [Compound 99, 3-(1-methyl-1H-indazol-6-yl)-6-(4-(pyrrolidin-1-ylmethyl)phenyl)-1,4-dihydrothieno[2′,3′:4,5] cyclopenta[1,2-c]pyrazole]
- IC50 [1]: < 1 nM
- IC50 [2]: < 30 nM
- IC50 [3]: < 30 nM

Structure (SMILES): Cn1ncc2ccc(-c3n[nH]c4c3Cc3sc(-c5ccc(CN6CCCCC6)cc5)cc3-4)cc21 [Compound 100, 3-(1-methyl-1H-indazol-6-yl)-6-(4-(piperidin-1-ylmethyl)phenyl)-1,4-dihydrothieno[2′,3′:4,5] cyclopenta[1,2-c]pyrazole]
- IC50 [1]: < 1 nM
- IC50 [2]: < 30 nM
- IC50 [3]: < 30 nM

Structure (SMILES): Cn1ncc2ccc(-c3n[nH]c4c3Cc3sc(-c5ccc(CN6CC7(COC7)C6)cc5)cc3-4)cc21 [Compound 102, 6-(4-(3-(1-methyl-1H-indazol-6-yl)-1,4-dihydro-thieno[2′,3′:4,5]cyclopenta [1,2-c]pyrazol-6-yl)benzyl)-2-oxa-6-azaspiro [3.3]heptane]
- IC50 [1]: < 1 nM
- IC50 [2]: 30 to 100 nM
- IC50 [3]: < 30 nM

Structure (SMILES): Cn1ncc2ccc(-c3n[nH]c4c3Cc3sc(-c5ccc(CN6CCC6)cc5)cc3-4)cc21 [Compound 103, 6-(4-(azetidin-1-ylmethyl)phenyl)-3-(1-methyl-1H-indazol-6-yl)-1,4-dihydro-thieno[2′,3′:4,5]cyclopenta [1,2-c]pyrazole]
- IC50 [1]: < 1 nM
- IC50 [2]: < 30 nM
- IC50 [3]: 30 to 100 nM

Structure (SMILES): Cn1ncc2ccc(-c3n[nH]c4c3Cc3sc(-c5ccc(CN6CC(F)(F)C6)cc5)cc3-4)cc21 [Compound 104, 6-(4-((3,3-difluoroazeti-din-1-yl)methyl)phenyl)-3-(1-methyl-1H-indazol-6-yl)-1,4-dihydrothieno [2′,3′:4,5]cyclopenta [1,2-c]pyrazole]
- IC50 [1]: 1 to 10 nM
- IC50 [2]: 30 to 100 nM
- IC50 [3]: 100 to 300 nM

Structure (SMILES): COC1CN(Cc2ccc(-c3cc4c(s3)Cc3c(-c5ccc6cnn(C)c6c5)n[nH]c3-4)cc2)C1 [Compound 105, 6-(4-((3-methoxyazeti-din-1-yl)methyl)phenyl)-3-(1-methyl-1H-indazol-6-yl)-1,4-dihydrothieno [2′,3′:4,5]cyclopenta [1,2-c]pyrazole]
- IC50 [1]: < 1 nM
- IC50 [2]: < 30 nM
- IC50 [3]: < 30 nM
